Test results reported in ChEMBL document CHEMBL1201862, “PubChem BioAssay data set” (2004).
Where a name gives a salt, the structure may show the parent alone.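 The compound was tested at five concentrations on cells cultured in 96-well plates, with a 48-hour exposure period. GI50: concentration for 50% inhibition of growth.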 Activity calls are given as the source filed them. Cut-off read from the data, not from the text of the source: active = GI50 up to about 1.1 µM and inactive = higher.

What was measured:
Experiment in all cases: NCI tumour cell line growth inhibition, 48 h
A498 = test system: A498
ACHN = test system: ACHN
BT-549 = test system: BT-549
CAKI-1 = test system: CAKI-1
CCRF-CEM = test system: CCRF-CEM
HCC 2998 = test system: HCC 2998
IGROV-1 = test system: IGROV-1
MDA-MB-435 = test system: MDA-MB-435
Malme-3M = test system: Malme-3M
NCI-H226 = test system: NCI-H226
NCI-H23 = test system: NCI-H23
PC-3 = test system: PC-3
SF-268 = test system: SF-268
SK-MEL-28 = test system: SK-MEL-28
SN12C = test system: SN12C
SW-620 = test system: SW-620
UACC-62 = test system: UACC-62
K562 = test system: K562
SNB-75 = test system: SNB-75

SMILES	GI50 (A498)	GI50 (ACHN)	GI50 (BT-549)	GI50 (CAKI-1)	GI50 (CCRF-CEM)	GI50 (HCC 2998)	GI50 (IGROV-1)	GI50 (MDA-MB-435)	GI50 (Malme-3M)	GI50 (NCI-H226)	GI50 (NCI-H23)	GI50 (PC-3)	GI50 (SF-268)	GI50 (SK-MEL-28)	GI50 (SN12C)	GI50 (SW-620)	GI50 (UACC-62)	GI50 (K562)	GI50 (SNB-75)
COC(=O)/C=C/CC(=O)NS(C)(=O)=O	> 10 µM (inactive)	> 10 µM (inactive)	> 10 µM (inactive)	> 10 µM (inactive)	> 10 µM (inactive)	> 10 µM (inactive)	> 10 µM (inactive)	> 10 µM (inactive)	> 10 µM (inactive)	> 10 µM (inactive)	> 10 µM (inactive)	> 10 µM (inactive)	> 10 µM (inactive)	> 10 µM (inactive)	> 10 µM (inactive)	> 10 µM (inactive)	> 10 µM (inactive)		
CC1OC(OC2C(O[C@H]3CC[C@@]4(C)C(=CC[C@H]5[C@@H]6C[C@@H]7O[C@]8(CC[C@H](C)CN8)[C@@H](C)[C@@H]7[C@@]6(C)CC[C@@H]54)C3)OC(CO)C(O)C2OC2OC(CO)C(O)C(O)C2O)C(O)C(O)C1O (some centres undefined)	26.9 µM (inactive)	17.6 µM (inactive)	17 µM (inactive)	19.2 µM (inactive)	21.6 µM (inactive)	18.3 µM (inactive)	19.5 µM (inactive)	23.5 µM (inactive)	18 µM (inactive)	17.4 µM (inactive)	18.5 µM (inactive)	18.1 µM (inactive)	16.6 µM (inactive)	19.1 µM (inactive)	20.8 µM (inactive)	19.2 µM (inactive)	17.6 µM (inactive)	> 10 µM (inactive)	14.5 µM (inactive)
COP(=O)(/C=C/C(NC(=O)C(Cl)(Cl)Cl)c1ccccc1)OC (centres undefined)	> 100 µM (inactive)	> 100 µM (inactive)	> 100 µM (inactive)	> 100 µM (inactive)		> 100 µM (inactive)	> 100 µM (inactive)	> 100 µM (inactive)	> 100 µM (inactive)	> 100 µM (inactive)	> 100 µM (inactive)	> 100 µM (inactive)	> 100 µM (inactive)	> 100 µM (inactive)	> 100 µM (inactive)	> 100 µM (inactive)	> 100 µM (inactive)	> 100 µM (inactive)	> 100 µM (inactive)
CCCCCCOc1ccc(NC2=C(Cl)C(=O)c3c(O)ccc(O)c3C2=O)cc1	4.57 µM (inactive)	3.16 µM (inactive)	3.25 µM (inactive)	5.28 µM (inactive)	2.49 µM (inactive)	1.8 µM (inactive)		1.72 µM (inactive)	1.83 µM (inactive)	3.88 µM (inactive)	2.4 µM (inactive)	3.09 µM (inactive)	6.22 µM (inactive)	2 µM (inactive)	1.86 µM (inactive)	2.2 µM (inactive)	2.58 µM (inactive)	3.1 µM (inactive)	4.06 µM (inactive)
O=C(/C=C/c1ccccc1)CCC1C(=O)NC(=O)NC1=O	> 100 µM (inactive)	> 100 µM (inactive)	> 100 µM (inactive)	> 100 µM (inactive)		> 100 µM (inactive)	> 100 µM (inactive)	> 100 µM (inactive)	> 100 µM (inactive)	> 100 µM (inactive)	> 100 µM (inactive)	> 100 µM (inactive)	> 100 µM (inactive)	> 100 µM (inactive)	> 100 µM (inactive)	> 100 µM (inactive)	> 100 µM (inactive)	97.9 µM (inactive)	> 100 µM (inactive)
O=C1c2c(Br)sc(Br)c2[C@@H](O)[C@H]1O	68.1 µM (inactive)	18 µM (inactive)	17.9 µM (inactive)	18.4 µM (inactive)	2.32 µM (inactive)	20.1 µM (inactive)	18.2 µM (inactive)	10.7 µM (inactive)	20.4 µM (inactive)	17.6 µM (inactive)	7.21 µM (inactive)	17.5 µM (inactive)	10.8 µM (inactive)	19.5 µM (inactive)	16.3 µM (inactive)	3.28 µM (inactive)	16.7 µM (inactive)	2.91 µM (inactive)	15.4 µM (inactive)
Cc1ccc2c(c1)C(=S)N1CSCC1c1nncn1-2 (centres undefined)	> 100 µM (inactive)	> 100 µM (inactive)	> 100 µM (inactive)	> 100 µM (inactive)	> 100 µM (inactive)	> 100 µM (inactive)	> 100 µM (inactive)	> 100 µM (inactive)	> 100 µM (inactive)	> 100 µM (inactive)		> 100 µM (inactive)	> 100 µM (inactive)	> 100 µM (inactive)	> 100 µM (inactive)	> 100 µM (inactive)	> 100 µM (inactive)	> 100 µM (inactive)	> 100 µM (inactive)
CC(=N/NC(=S)N1CCCCC1)/C(C)=N\NC(=S)N1CCCCC1	1.5 µM (inactive)	1.55 µM (inactive)	1.92 µM (inactive)	1.71 µM (inactive)		2.12 µM (inactive)	1.58 µM (inactive)	1.87 µM (inactive)	2.08 µM (inactive)	1.57 µM (inactive)	2.13 µM (inactive)	1.86 µM (inactive)	1.67 µM (inactive)	2.08 µM (inactive)	1.69 µM (inactive)	2.14 µM (inactive)	1.35 µM (inactive)	2.25 µM (inactive)	1.45 µM (inactive)
CCN(CC)C(=S)SC1C(=O)NC(=O)NC1=O	0.0106 µM (active)	> 100 µM (inactive)	> 100 µM (inactive)	> 100 µM (inactive)	> 100 µM (inactive)	> 100 µM (inactive)	> 100 µM (inactive)	> 100 µM (inactive)	> 100 µM (inactive)	> 100 µM (inactive)	> 100 µM (inactive)	> 100 µM (inactive)	> 100 µM (inactive)	> 100 µM (inactive)	> 100 µM (inactive)	> 100 µM (inactive)	> 100 µM (inactive)	> 100 µM (inactive)	> 100 µM (inactive)
CCCCc1c2c(nc3c1CCCC3O)CCCC2 (centres undefined)	> 100 µM (inactive)	80 µM (inactive)	> 100 µM (inactive)	> 100 µM (inactive)	72.6 µM (inactive)	> 100 µM (inactive)	> 100 µM (inactive)	> 100 µM (inactive)	> 100 µM (inactive)	> 100 µM (inactive)	> 100 µM (inactive)	> 100 µM (inactive)	> 100 µM (inactive)		> 100 µM (inactive)	> 100 µM (inactive)	> 100 µM (inactive)	84.3 µM (inactive)	> 100 µM (inactive)
COC(=O)CCC1(C)C2CCC1/C(=N/O)C2 (centres undefined)	> 100 µM (inactive)	> 100 µM (inactive)	> 100 µM (inactive)	> 100 µM (inactive)	> 100 µM (inactive)	> 100 µM (inactive)	> 100 µM (inactive)	> 100 µM (inactive)	> 100 µM (inactive)	> 100 µM (inactive)	> 100 µM (inactive)	> 100 µM (inactive)	> 100 µM (inactive)	> 100 µM (inactive)	> 100 µM (inactive)	> 100 µM (inactive)	> 100 µM (inactive)	> 100 µM (inactive)	> 100 µM (inactive)
COc1cc(S(=O)(=O)Nc2nc(-c3ccc(N)cc3)cs2)ccc1Cl	84.3 µM (inactive)	66.4 µM (inactive)	51.9 µM (inactive)	73.5 µM (inactive)	48.5 µM (inactive)		44.7 µM (inactive)	83.6 µM (inactive)	> 100 µM (inactive)	41.7 µM (inactive)	45.8 µM (inactive)	51.8 µM (inactive)	75.7 µM (inactive)	69.3 µM (inactive)	34.4 µM (inactive)	> 100 µM (inactive)	28.4 µM (inactive)	58.2 µM (inactive)	> 100 µM (inactive)
COc1ccc(NC(=O)CC(=O)n2nc(C)c(/N=N/c3ccc(C)c(C)c3)c2C)cc1	63.8 µM (inactive)	82.6 µM (inactive)	> 100 µM (inactive)	> 100 µM (inactive)	> 100 µM (inactive)	> 100 µM (inactive)	29.4 µM (inactive)	> 100 µM (inactive)	> 100 µM (inactive)	51.3 µM (inactive)	71.4 µM (inactive)	> 100 µM (inactive)	33.8 µM (inactive)	> 100 µM (inactive)	> 100 µM (inactive)	> 100 µM (inactive)	> 100 µM (inactive)		39.2 µM (inactive)
O=C(O)CCNc1[nH]cnc2ncnc1-2	> 100 µM (inactive)	> 100 µM (inactive)	> 100 µM (inactive)	> 100 µM (inactive)	> 100 µM (inactive)	> 100 µM (inactive)	> 100 µM (inactive)	> 100 µM (inactive)	> 100 µM (inactive)	> 100 µM (inactive)	> 100 µM (inactive)	> 100 µM (inactive)	> 100 µM (inactive)	> 100 µM (inactive)	> 100 µM (inactive)	> 100 µM (inactive)	> 100 µM (inactive)	> 100 µM (inactive)	> 100 µM (inactive)
CC(C)C[C@H]1C(=O)N2CCC[C@H]2[C@]2(O)O[C@](NC(=O)[C@@H]3C=C4c5cccc6[nH]c(Br)c(c56)C[C@H]4N(C)C3)(C(C)C)C(=O)N12 [BROMOCRIPTINE MESYLATE]	> 100 µM (inactive)	13 µM (inactive)	> 100 µM (inactive)	46.1 µM (inactive)	4.56 µM (inactive)	32.8 µM (inactive)	67.5 µM (inactive)	38.2 µM (inactive)	36.5 µM (inactive)	51.2 µM (inactive)		4.17 µM (inactive)	59.6 µM (inactive)	> 100 µM (inactive)	56.1 µM (inactive)	72.6 µM (inactive)	> 100 µM (inactive)	4.65 µM (inactive)	40.9 µM (inactive)
